Source: patent US5411965A, “Use of delta opioid receptor antagonists to treat cocaine abuse” (Arizona Board of Regents, priority 1993, dated 1995)
“Also recorded” adds a separate entry of the source. Read-outs that look alike come from different tables or passages of the source.

Experiments:
[1] = Conditioned place preference (CPP) test; assay type: in vivo, male Lewis rats; details: for conditioned place preference, cocaine alone: cocaine 15 mg/kg s.c. plus placebo
Source text: Testing associated with conditioning place preference (CPP) procedures involves some rather straightforward assumptions and observations.
To test NTI's ability to block cocaine's ability to establish a CPP, male, Lewis rats were subjected to standard procedures associated with testing for place preferences. The rats were first habituated to being handled.
Then, the rats were put into an alley having two distinctive sides with the barrier separating the two sides not in place, i.e., a baseline preference for the two sides was measured. After baseline was determined, the conditioning procedures began.
The conditioning procedures were the same for all rats, except that there were four different regimens of drug administration, one regimen for each of four different groups of rats (12 rats a group). The conditioning procedure involved one set of kind of injections before a rat was placed in one side of the alley and another set of kind of injections before being placed in the other side.
The group of rats that received the procedures usually used to show a cocaine-produced CPP, received cocaine-injections (plus a placebo injection) before being put into the putative side of conditioning. The dose of cocaine was 15 mg/kg given subcutaneously, a relatively large dose of cocaine. On the next day, this group received placebo injections before being put into the alternative side. These procedures were repeated throughout conditioning.
There was also a group that received placebos (vehicles for both cocaine and NTI) before being placed in either side of the chamber. This is a typical control group and can be used to determine if merely the procedures themselves of handling the rats leads rats to change their preference for a side of the alley.
There was yet another control group. This group received NTI before being placed in the side of putative conditioning and placebos at other times. […] So, the basic conditions for testing a NTI's effects on cocaine's ability to establish a CPP indicative of cocaine's positivity were set.
FIG. 2 depicts the mean percent change from baseline for each of the experimental groups. The group represented by the open bar (far left bar) received only injections of placebos before being put into either side of the apparatus, i.e., this is a placebo control group. […] The striped bar depicts the mean scores of the group that received NTI before being placed into the side of conditioning and saline before being placed into the other side. […] The solid black bar depicts the scores of the group getting cocaine before being put into the side of conditioning (saline or placebo before being put into the other side). […] The cross-hatched bar depicts the mean score of the group treated with cocaine but also receiving NTI.

[2] = assay type: in vivo, rats; details: for pressing for brain stimulation, cocaine alone: cocaine (5.0 mg/kg in Example 5); for pressing for brain stimulation, NTI plus MDMA: in words
Source text: When rats are fixed with chronically indwelling bipolar electrodes for electrical stimulation of the medial forebrain bundle, they will press levers for brief durations of stimulation. The higher the intensity of stimulation, the greater the pressing. […] These relationships plus extant theory provide the rationale for using pressing for brain stimulation as a means of assessing the reinforcing effects of drugs and assessing which drugs might affect another drug's reinforcing effects.
The particulars of the procedures used herein are briefly summarized. Further information is in Reid (cited above) and Reid et al. (Life Sciences, 52, PL67-71 (1993)). Rats were fixed with chronically indwelling bipolar electrodes. Using standard stereotaxic methods, which includes full anesthesia, the tips of the electrode were aimed to stimulate the medial forebrain bundle as it traverses the lateral hypothalamus. With the skull held in a stereotaxic instrument so that a plane between bregma and lamba was perpendicular to the shaft of the electrode, the following stereotaxic coordinates were used: 3.5 mm posterior to brema, 1.6 mm lateral to the midline, and 8.6 mm below the surface of the skull.
The apparatus of these tests was a Skinner box (24×30 ×38 cm) equipped with a lever (2.5×2 cm). Each box was fixed with electrical leads and a slip-ring apparatus that allowed the rat to be connected to the electrical stimulator for intracranial stimulation, but allowed the rat to move freely in the box.
Upon full recovery from surgery, rats were trained to press a lever in the Skinner box for electrial stimulation of the brain. The electrical stimulation was 60 Hz sine waves of 0.3 sec. The maximum intensity used was of 50 microAmps. Each lever press delivered one 0.3-sec of brain stimulation.
Just after rats learned to press the lever, the intensity of the brain stimulation was varied. Three intensities were chosen. The lowest intensity was one that was barely sufficient to sustain lever pressing. The highest intensity sustained high rates of pressing, but not the highest rates that a rat can achieve. The medium intensity was about midway between the lowest and the highest. Once a set of intensities were established for each rat, those intensities remained fixed throughout the balance of testing. […] Each rat was under a daily regimen. They were allowed to press for each of three intensities of brain stimulation for 10 minutes. […] They were allowed to press the lever under this daily regimen under level-pressing rates became stable. Then, drugs (or placebos) were administered.
The methods of Example 5 were nearly the same as those of Example 4. Rats were fixed, using standard procedures, with chronically indwelling electrodes for stimulation of the medial forebrain bundle. Subsequent to recovery from surgery, they were trained to press for brain stimulation. After each learned to press, they were put on a daily regimen. That daily regimen involved pressing for 5 min at a high intensity of brain stimulation, followed by 5-minute sessions with medium, low, low, medium and then high intensity. Intensities were set for each rat so that pressing rate for the low intensity was rather slow (the low intensity being near lower threshold for maintaining pressing), pressing for the high intensity was at a high rate, and pressing for the medium intensity was between the rate for low and high intensity. Pressing at each intensity was averaged for an index of rat's responsiveness at that intensity.

[3] = assay type: in vivo, rats; details: cocaine 0.4 mg/kg a lever press; one-hour session
Source text: When rats are fixed with chronically indwelling intravenous catheters, drugs can be administered as the rats are walking around. These same rats can be put into a box equipped with a lever, the depression of which actuates a pump that can deliver drug through the catheter, i.e., the rats can be put into a Skinner box with drug administration a continguency of lever-pressing. […] See J. R. Weeks et al., "Screening for Drug Reinforcement Using Intravenous Self-Administration in the Rat," Bozarth, cited above, at pages 35-44.
Rats were fixed with chronically indwelling catheters for the delivery of doses of cocaine directly into their veins. Subsequently, the rats were trained to press a lever for small bolus injections of cocaine (0.4 mg/kg of cocaine a lever press with an injection volume of 10 microliters of drug plus saline solution, the drug carrier). Rats were given one-hour opportunities daily to press for cocaine.

[4] = drug alone; literature; cited from earlier work
[5] = system: dopamine transporter; details: in words; cited from earlier work
[6] = system: delta opioid receptor; assay: In vivo antagonism of DSLET antinociception (writhing); parameters: species or system mice; details: 20 mg/kg s.c.; in words
Experimental: When mice are injected with an irritant, they respond by a characteristic writhing that can be inhibited by analgesics. Consequently, the writhing response can be used to index the effects of particular opioids.

[7] = molecular target: mu opioid receptor; details: agonist morphine in GPI; antagonist 100 or 200 nM, 15 min; read-out: Ke; cited from earlier work

Compound	conditioned place preference, cocaine alone [1]	conditioned place preference, cocaine alone ([1]; listed as cocaine)	pressing for brain stimulation, cocaine alone [2]	pressing for brain stimulation, cocaine alone ([2]; listed as cocaine)	cocaine self-administration, average presses without NTI [3]	conditioned place preference [4]	dopamine transporter binding / dopamine reuptake inhibition [5]	blocking of writhing inhibition due to DSLET [6]	conditioned place preference, NTI alone ([1]; rat, in vivo)	conditioned place preference, NTI plus cocaine ([1]; rat, in vivo)	mean presses at High intensity, MDMA plus Naltrindole ([2]; High intensity, combination with MDMA, six rats) [presses per ten minutes]	mean presses at Low intensity, MDMA plus Naltrindole ([2]; Low intensity, combination with MDMA, six rats) [presses per ten minutes]	mean presses at Medium intensity, MDMA plus Naltrindole ([2]; Medium intensity, combination with MDMA, six rats) [presses per ten minutes]	pressing for brain stimulation, NTI alone ([2]; NTI by itself, listed as NTI)	pressing for brain stimulation, NTI plus MDMA ([2]; listed as NTI)	pressing for brain stimulation, NTI plus MDMA ([2]; listed as naltrindole)	pressing for brain stimulation, NTI plus amphetamine ([2]; rat, in vivo)	pressing for brain stimulation, NTI plus cocaine ([2]; rat, in vivo)	pressing for brain stimulation, NTI plus morphine ([2]; rat, in vivo)	Kb [7] [nM]
COC(=O)[C@H]1[C@@H](OC(=O)c2ccccc2)C[C@@H]2CC[C@H]1N2C [Cocaine, methyl 3-(benzoyloxy)-8-methyl-8-azabicyclo[3.2.1]octane-2-carboxylate]	established a positive CPP; also recorded: produced a significant (asterisk) positive place preference	statistically significantly different than its baseline score and is significantly larger than the placebo-control group's scores	leads to a marked increase in pressing compared to pressing under the influence of placebo	large increase in pressing; also recorded: increased pressing for stimulation	about 11 presses a session	establishes a CPP	binds to the dopamine transporter and inhibits dopamine reuptake	–	–	–	–	–	–	–	–	–	–	–	–	–
Oc1ccc2c3c1O[C@H]1c4[nH]c5ccccc5c4C[C@@]4(O)[C@@H](C2)N(CC2CC2)CC[C@]314 [Compound 1, 17-(cyclopropylmethyl)-6,7-dehydro-3,14β-dihydroxy-4,5α-epoxy-6,7-2',3'-indolmorphinan]	–	–	–	–	–	–	–	effectively blocked the writhing inhibition due to DSLET	did not significantly change from baseline to testing; also recorded: not statistically different at testing from baseline; also recorded: did not by itself establish a place preference; also recorded: did not produce place preferences or place aversions	significantly different from the cocaine group's scores but not different from the other groups' scores; also recorded: blocked cocaine's ability to produce a positive CPP; also recorded: antagonized by naltrindole	825	98	342	no demonstratable effect; also recorded: did not, by itself, reduce pressing for brain stimulation	reduced the increased pressing associated with the administration of MDMA	pressing at the low intensity is reduced considerably and there is no reliable difference in pressing under the combination of drugs compared to placebo	pressed somewhat less under the influence of NTI (10 mg/kg) plus amphetamine than they did under the influence of placebos; also recorded: NTI can modulate amphetamine's as well as cocaine's reinforcing effects; also recorded: reduced pressing similar to rate under placebo	NTI blocked cocaine's effects; also recorded: blocked the effects of cocaine; also recorded: NTI blocked cocaine's ability to be reinforcing; also recorded: reduced rate of pressing under the influence of cocaine to that similar to rate of pressing under placebo alone; also recorded: extraordinarily effective in blocking cocaine's salient effects	hardly affected the effects of morphine; also recorded: negligible; also recorded: did not markedly or significantly affect rate of pressing	29.4
